Entries after “also recorded” stand apart in the source; their conditions may differ.
Assays:
[1] = system: kidney tissue (renal tubular cell damage); test: Nephrotoxicity caused by colistin in C57BL/6 mice, PAS staining and KIM-1 Western blot (Example 4)
Protocol: Division was made into a group in which 30 mg/kg/day of colistin was subcutaneously administered over four days to 12-week-old male C57BL/6 mice (colistin-administered group: colstin), a group in which 100 mg/kg/day of cilastatin was subcutaneously administered over four days in combination with the subcutaneous administration of 30 mg/kg/day of colistin over four days (colistin+cilastatin combination group: colstin+cilastatin), and, as a control, a group in which a physiological saline solution was subcutaneously administered over four days instead of colistin (saline group: saline), administration was performed in the same manner as the protocol of Reference Example 2 described above, after that, the kidney tissue was taken and histochemical staining (PAS staining) was performed.
Furthermore, using the extracted kidney tissue, the expression of KIM-1, which is a renal tubular cell damage marker, was confirmed by Western blot.

[2] = molecular target: T1, megalin (Rattus norvegicus, UniProt P98158)
Excerpt: Next, detailed description will be given of the present invention through the illustration of examples, and the like; however, the present invention is not limited thereto. In the following Examples and the like, purified megalin from rat kidneys according to the method described in NPL 5 was used as the megalin, cilastatin sodium (produced by Sigma-Aldrich Co. LLC.) was used as the cilastatin, colistin sulfate (produced by Sigma-Aldrich Co. LLC.) was used as the colistin, gentamicin produced by Sigma-Aldrich Co. LLC. was used as the gentamicin, vancomycin produced by Sigma-Aldrich Co. LLC. was used as the vancomycin, tenofovir produced by Sigma-Aldrich Co. LLC. was used as the tenofovir, and cisplatin produced by Bristol-Myers Co., Ltd., was used as the cisplatin.
The antagonism effect with respect to the binding of colistin to megalin due to cilastatin was investigated using the QCM method.
As a control, measurement and analysis were carried out in the same manner except that cilastatin was not injected (cilastatin injection amount: 0 μg).
The antagonistic action of cilastatin on the binding of gentamicin, vancomycin, cisplatin, and tacrolimus to megalin was investigated using the QCM method.
Specifically, the measurement and analysis of the frequency were carried out in the same manner as for Example 1 except that the injection amount of cilastatin was set to 4000 μg and 4000 μg of gentamicin was used instead of 240 μg of colistin.
In addition, the measurement and analysis of the frequency were carried out in the same manner as for Example 1 except that the injection amount of cilastatin was set to 5000 μg and 1000 μg of vancomycin was used instead of 240 μg of colistin.
In addition, the measurement and analysis of the frequency were carried out in the same manner as for Example 1 except that the injection amount of cilastatin was set to 10000 μg and 800 μg of cisplatin was used instead of 240 μg of colistin.
Furthermore, the measurement and analysis of the frequency were carried out in the same manner as for Example 1 except that the injection amount of cilastatin was set to 2000 μg and 160 μg of tacrolimus was used instead of 240 μg of colistin.

[3] = system: nephrotoxicity of cisplatin; settings: rats, reported in PTL 2; cited from earlier work
[4] = system: colistin-induced renal impairment; test: Colistin nephropathy in rats, urinary NAG/CRE (Example 3)
Protocol: Cilastatin and colistin were co-administered to rats and it was investigated whether or not nephropathy due to colistin was reduced by the megalin ligand antagonistic action of cilastatin.
In evaluating the colistin nephropathy reduction effect due to cilastatin, a colistin solution and a cilastatin solution were prepared as follows.
In the preparation of the colistin solution, first, a colistin stock solution (colistin concentration: 10 mg/mL) was prepared by dissolving 360 mg of colistin sulfate in 30 mL of a saline solution. The colistin stock solution was sterilized by filtration with a 22 mm PVDF membrane and then stored at 4° C. and a colistin administration solution was prepared by diluting the solution with a saline solution before the colistin administration. […]
The concentrations of urinary β-D-N-acetyl-glucosaminidase (NAG) and creatinine (CRE) in the recovered urine were each measured using a measurement kit (product name: CREP 2 and BUNK, both were measured by Roche Diagnostics Co., Ltd.) using a discrete method automatic clinical chemistry analyzer (product name: COBAS INTEGRA 400 plus, manufactured by Roche Diagnostics Co., Ltd.), and the urinary NAG/CRE values of each test group were calculated.

[5] = system: ATCC25922 strain (E. coli standard strain); test: Disk method anti-microbial activity (Reference Example 4); format: cell-based
Protocol: An ATCC25922 strain (E. coli standard strain) was cultured for 20 hours using Mueller Hinton agar (MHA) and then the cultured colonies were suspended in saline and adjusted to obtain a solution equivalent to McFarland turbidity standard 0.5. After uniformly coating and drying the microbial solution on the MHA, 10 μg of colistin, cilastatin, and colistin and cilastatin were each added to 6 mm Whatman filter paper discs, disposed at equal intervals on the MHA described above, and cultured for 20 hours at 37° C., and the blocking circles were compared.

[6] = molecular target: T1, megalin; test: QCM method: binding ability to immobilized megalin (Reference Example 1); set-up: purified megalin from rat kidneys according to the method described in NPL 5 was used as the megalin; from tissue; host or cells: rat kidney; settings: megalin protein immobilized crystal, colistin 240 μg, gentamicin 4000 μg, vancomycin 1600 μg, cisplatin 400 μg, tenofovir 1200 μg
Protocol: The binding ability of colistin, gentamicin, vancomycin, cisplatin, and tenofovir with respect to megalin was analyzed using the quartz crystal microbalance method (QCM method).
Regarding the immobilization of megalin protein using the Immobilization Kit for AFFINIX (registered trademark) (manufactured by Initium), according to the protocol recommended in the kit, a megalin protein solution adjusted to 12 to 14 μg/mL using Buffer A included in the kit was immobilized by being placed on the crystal installed in the holder.
In more detail, 8 μL of each drug solution was injected to the megalin protein-immobilized crystal placed in the surface of water containing 8 mL of buffer, and the frequency was measured. As a control, measurement was also performed in the same manner with respect to a crystal where the megalin protein was not immobilized. The measurement data was analyzed using dedicated analysis software AQUA (produced by Initium).

[7] = system: proximal tubular cells; test: Renal tubular cell damage by colistin in kidney specific mosaic-type megalin knockout mice (Reference Examples 2 and 3); format: in vivo, mice (apoE cre/megalin loxP)
Protocol: Renal tubular cell damage caused when colistin was administered to megalin mosaic-type knockout mice was analyzed.
First, 12-week-old kidney specific mosaic-type megalin knockout mice (apoE cre/megalin loxP) were used in the experiments (in these mice, genes expressing megalin in about 60% of proximal tubular cells were knocked out). With respect to these mice, the subcutaneous administration of colistin was performed over four days (30 mg/kg/day), after that, proximal tubular cells were analyzed and immunohistochemical staining was performed.
With the same method as in Reference Example 2, colistin was administered to renal-specific mosaic-type megalin knockout mice, after that, the proximal tubular cells were analyzed, and the expression of KIM-1 (Kidney Injury Molecule 1), which is an injury marker of proximal tubular cells, and the expression of megalin were confirmed using a fluorescent double staining method.

[8] = 10 μg on 6 mm filter paper disc, MHA, 20 hours at 37° C.
[9] = colistin 30 mg/kg/day subcutaneous over four days

T1 sequence (P98158 26-4660): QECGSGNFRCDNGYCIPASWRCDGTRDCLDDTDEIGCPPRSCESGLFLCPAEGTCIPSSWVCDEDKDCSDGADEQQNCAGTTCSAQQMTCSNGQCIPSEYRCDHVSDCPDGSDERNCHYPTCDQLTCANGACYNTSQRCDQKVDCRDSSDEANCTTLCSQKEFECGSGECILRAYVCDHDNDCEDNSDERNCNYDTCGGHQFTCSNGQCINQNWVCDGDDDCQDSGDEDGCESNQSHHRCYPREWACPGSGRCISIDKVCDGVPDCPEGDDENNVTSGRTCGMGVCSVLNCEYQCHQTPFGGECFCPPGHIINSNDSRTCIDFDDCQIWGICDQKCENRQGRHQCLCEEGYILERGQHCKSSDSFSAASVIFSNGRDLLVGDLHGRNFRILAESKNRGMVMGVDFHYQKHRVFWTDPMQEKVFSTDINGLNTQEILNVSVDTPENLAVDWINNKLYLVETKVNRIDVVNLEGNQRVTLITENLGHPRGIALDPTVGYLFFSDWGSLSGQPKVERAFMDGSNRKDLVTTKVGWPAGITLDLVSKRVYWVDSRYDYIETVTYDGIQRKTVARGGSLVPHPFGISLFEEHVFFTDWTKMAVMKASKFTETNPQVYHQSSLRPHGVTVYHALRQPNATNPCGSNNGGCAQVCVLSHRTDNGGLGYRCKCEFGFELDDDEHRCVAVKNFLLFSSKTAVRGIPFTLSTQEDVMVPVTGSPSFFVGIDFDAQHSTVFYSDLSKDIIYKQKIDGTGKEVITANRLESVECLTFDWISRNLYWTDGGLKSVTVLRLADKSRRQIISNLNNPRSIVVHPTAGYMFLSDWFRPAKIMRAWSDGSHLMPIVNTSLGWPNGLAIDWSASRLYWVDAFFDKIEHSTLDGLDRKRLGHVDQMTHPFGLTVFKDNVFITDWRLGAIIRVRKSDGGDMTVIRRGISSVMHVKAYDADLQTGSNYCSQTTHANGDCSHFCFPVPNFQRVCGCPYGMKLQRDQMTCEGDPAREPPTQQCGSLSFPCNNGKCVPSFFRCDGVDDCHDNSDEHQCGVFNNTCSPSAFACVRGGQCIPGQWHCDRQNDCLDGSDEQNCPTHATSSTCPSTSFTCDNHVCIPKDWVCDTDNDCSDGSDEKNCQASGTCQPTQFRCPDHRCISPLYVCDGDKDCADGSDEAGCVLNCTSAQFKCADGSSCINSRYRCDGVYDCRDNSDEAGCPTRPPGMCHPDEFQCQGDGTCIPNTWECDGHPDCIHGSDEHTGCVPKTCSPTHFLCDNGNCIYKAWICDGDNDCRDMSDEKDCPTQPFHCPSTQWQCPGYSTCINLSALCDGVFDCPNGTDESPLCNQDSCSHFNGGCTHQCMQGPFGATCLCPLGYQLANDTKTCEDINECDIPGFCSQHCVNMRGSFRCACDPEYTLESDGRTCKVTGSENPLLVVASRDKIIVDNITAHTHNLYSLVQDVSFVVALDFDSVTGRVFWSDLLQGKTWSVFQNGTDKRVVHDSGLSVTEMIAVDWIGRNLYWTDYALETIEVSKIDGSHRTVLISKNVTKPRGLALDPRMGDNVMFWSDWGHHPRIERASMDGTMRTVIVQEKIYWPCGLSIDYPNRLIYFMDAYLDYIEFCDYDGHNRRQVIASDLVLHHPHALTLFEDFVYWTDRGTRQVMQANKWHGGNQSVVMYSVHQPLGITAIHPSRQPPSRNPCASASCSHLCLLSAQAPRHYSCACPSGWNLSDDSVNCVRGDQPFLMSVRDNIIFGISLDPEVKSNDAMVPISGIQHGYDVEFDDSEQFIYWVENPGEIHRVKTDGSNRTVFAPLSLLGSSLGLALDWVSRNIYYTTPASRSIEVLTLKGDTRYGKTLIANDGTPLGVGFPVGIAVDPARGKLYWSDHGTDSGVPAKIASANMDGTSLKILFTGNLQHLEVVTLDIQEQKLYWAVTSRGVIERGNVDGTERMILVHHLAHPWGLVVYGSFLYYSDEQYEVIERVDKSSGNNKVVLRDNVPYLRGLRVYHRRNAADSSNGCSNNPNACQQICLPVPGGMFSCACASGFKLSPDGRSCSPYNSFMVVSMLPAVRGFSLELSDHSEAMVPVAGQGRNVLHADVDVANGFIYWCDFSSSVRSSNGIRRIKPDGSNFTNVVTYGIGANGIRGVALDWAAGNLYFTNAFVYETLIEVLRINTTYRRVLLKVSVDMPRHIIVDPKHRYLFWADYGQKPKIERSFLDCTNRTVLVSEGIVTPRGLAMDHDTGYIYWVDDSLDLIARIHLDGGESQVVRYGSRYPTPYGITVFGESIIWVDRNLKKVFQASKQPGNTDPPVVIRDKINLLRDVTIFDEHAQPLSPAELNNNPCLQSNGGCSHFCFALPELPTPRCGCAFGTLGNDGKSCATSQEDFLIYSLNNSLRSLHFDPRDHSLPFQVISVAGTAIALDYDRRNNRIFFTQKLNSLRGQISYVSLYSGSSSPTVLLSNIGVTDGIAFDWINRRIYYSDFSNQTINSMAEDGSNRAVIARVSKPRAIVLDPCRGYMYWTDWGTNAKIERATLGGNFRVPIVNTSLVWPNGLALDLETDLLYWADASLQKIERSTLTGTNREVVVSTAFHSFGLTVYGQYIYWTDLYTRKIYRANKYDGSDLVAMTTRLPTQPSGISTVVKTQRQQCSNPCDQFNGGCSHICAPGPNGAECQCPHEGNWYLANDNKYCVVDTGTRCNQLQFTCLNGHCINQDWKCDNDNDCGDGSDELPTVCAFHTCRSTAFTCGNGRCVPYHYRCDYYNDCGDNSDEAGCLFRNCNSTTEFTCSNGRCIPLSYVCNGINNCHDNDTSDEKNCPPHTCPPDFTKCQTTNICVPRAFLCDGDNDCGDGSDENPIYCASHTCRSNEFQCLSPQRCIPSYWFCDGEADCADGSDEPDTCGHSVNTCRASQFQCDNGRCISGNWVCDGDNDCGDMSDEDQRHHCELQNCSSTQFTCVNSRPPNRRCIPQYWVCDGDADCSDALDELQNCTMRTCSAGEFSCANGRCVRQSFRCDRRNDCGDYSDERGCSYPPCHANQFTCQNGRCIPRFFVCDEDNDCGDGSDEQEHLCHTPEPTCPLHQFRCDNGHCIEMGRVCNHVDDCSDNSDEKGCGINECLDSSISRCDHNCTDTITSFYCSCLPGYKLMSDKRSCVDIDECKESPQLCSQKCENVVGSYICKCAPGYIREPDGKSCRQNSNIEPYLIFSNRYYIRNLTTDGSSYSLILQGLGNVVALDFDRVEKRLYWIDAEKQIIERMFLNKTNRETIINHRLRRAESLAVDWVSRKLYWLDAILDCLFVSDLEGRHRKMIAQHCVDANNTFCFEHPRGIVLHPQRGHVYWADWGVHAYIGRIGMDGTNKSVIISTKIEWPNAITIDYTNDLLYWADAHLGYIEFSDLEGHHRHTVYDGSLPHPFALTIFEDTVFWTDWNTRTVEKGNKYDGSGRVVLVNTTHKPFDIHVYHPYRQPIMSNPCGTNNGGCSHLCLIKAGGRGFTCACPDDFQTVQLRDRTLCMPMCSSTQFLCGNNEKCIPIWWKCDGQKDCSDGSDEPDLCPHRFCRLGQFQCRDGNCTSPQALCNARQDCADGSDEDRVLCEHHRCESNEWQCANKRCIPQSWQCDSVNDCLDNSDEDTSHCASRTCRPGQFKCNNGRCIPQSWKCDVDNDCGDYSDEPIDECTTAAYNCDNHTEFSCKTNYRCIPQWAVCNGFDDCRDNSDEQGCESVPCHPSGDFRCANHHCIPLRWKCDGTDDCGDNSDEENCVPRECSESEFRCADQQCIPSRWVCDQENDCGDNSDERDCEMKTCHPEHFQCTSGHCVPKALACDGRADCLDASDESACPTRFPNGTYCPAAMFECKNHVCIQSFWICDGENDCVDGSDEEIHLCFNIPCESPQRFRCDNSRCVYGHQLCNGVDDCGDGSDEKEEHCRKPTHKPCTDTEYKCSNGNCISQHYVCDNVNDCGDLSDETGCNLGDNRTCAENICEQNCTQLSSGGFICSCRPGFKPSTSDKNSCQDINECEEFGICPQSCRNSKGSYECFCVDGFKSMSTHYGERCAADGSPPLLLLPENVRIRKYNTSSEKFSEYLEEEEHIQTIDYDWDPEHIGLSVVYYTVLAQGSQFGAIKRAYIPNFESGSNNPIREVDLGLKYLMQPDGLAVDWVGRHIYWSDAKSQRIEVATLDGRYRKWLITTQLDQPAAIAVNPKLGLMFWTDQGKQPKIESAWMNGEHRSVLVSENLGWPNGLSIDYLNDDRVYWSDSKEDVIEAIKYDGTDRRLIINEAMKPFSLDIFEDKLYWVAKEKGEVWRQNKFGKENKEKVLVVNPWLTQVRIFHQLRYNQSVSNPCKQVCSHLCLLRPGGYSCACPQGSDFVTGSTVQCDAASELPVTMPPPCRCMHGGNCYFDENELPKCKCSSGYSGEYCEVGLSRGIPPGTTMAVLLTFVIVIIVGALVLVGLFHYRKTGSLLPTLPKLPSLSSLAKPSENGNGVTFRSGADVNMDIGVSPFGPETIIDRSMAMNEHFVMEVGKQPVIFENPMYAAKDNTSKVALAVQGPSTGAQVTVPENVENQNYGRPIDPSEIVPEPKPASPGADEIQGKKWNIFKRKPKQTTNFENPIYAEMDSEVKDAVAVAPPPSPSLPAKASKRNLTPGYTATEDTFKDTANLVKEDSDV

CC1(C)C[C@@H]1C(=O)N/C(=C\CCCCSC[C@H](N)C(=O)O)C(=O)O [cilastatin, (Z)-7-[[(R)-2-amino-2-carboxyethyl]thio]-2-[[[(S)-2,2-dimethylcyclopropyl]carbonyl]amino]-2-heptenoic acid]
renal tubular cell damage caused by colistin, histologically and biochemically ([1]; cilastatin 100 mg/kg/day combined with colistin 30 mg/kg/day): remarkably improved
inhibition of binding of tacrolimus to megalin protein ([2]; cilastatin 2000 μg before 160 μg tacrolimus): inhibited by cilastatin
inhibition of binding of gentamicin to megalin protein ([2]; cilastatin 4000 μg before 4000 μg gentamicin): inhibited by cilastatin
inhibition of binding of vancomycin to megalin protein ([2]; cilastatin 5000 μg before 1000 μg vancomycin): inhibited by cilastatin
inhibition of binding of cisplatin to megalin protein ([2]; cilastatin 10000 μg before 800 μg cisplatin): inhibited by cilastatin
inhibition of binding of colistin to megalin protein ([2]; cilastatin 800, 5000 or 10000 μg injected before 240 μg colistin): inhibited depending on the concentration of the cilastatin
nephrotoxicity of cisplatin on co-administration with cilastatin [3]: the nephrotoxicity was improved
colistin-induced renal impairment ([4]; co-administration of cilastatin 100 mg/kg with colistin, rats): colistin-induced renal impairment was reduced
blocking circle / anti-microbial activity [5, 8]: a blocking circle was not formed and anti-microbial activity was not exhibited; also recorded: anti-microbial activity could not be seen
influence on the anti-microbial activity of colistin ([5]; colistin and cilastatin on the same disc): does not affect the anti-microbial activity of colistin

N.N.[Cl][Pt][Cl] [cisplatin]
binding to megalin (frequency decrease after injection) [6]: binding to megalin was confirmed

C=CC[C@@H]1/C=C(\C)C[C@H](C)C[C@H](OC)[C@H]2O[C@@](O)(C(=O)C(=O)N3CCCC[C@H]3C(=O)O[C@H](/C(C)=C/[C@@H]3CC[C@@H](O)[C@H](OC)C3)[C@H](C)[C@@H](O)CC1=O)[C@H](C)C[C@@H]2OC [tacrolimus]
binding to megalin (frequency decrease after injection) [6]: binding to megalin was confirmed

C[C@H](Cn1cnc2c(N)ncnc21)OCP(=O)(O)O [tenofovir]
binding to megalin (frequency decrease after injection) [6]: not possible to find the binding

CN[C@H](CC(C)C)C(=O)N[C@H]1C(=O)N[C@@H](CC(N)=O)C(=O)N[C@H]2C(=O)N[C@H]3C(=O)N[C@H](C(=O)N[C@H](C(=O)O)c4cc(O)cc(O)c4-c4cc3ccc4O)[C@H](O)c3ccc(c(Cl)c3)Oc3cc2cc(c3O[C@@H]2O[C@H](CO)[C@@H](O)[C@H](O)[C@H]2O[C@H]2C[C@](C)(N)[C@H](O)[C@H](C)O2)Oc2ccc(cc2Cl)[C@H]1O [vancomycin]
binding to megalin (frequency decrease after injection) [6]: binding to megalin was confirmed

colistin
dilatation and cast formation of the tubules (PAS staining) [1, 9]: dilatation and cast formation of the tubules was observed
expression of KIM-1 in kidney tissue (Western blot) [1, 9]: increased expression of KIM-1 was observed
binding to megalin (frequency decrease after injection) [6]: binding to megalin was confirmed
urinary NAG/CRE values relative to saline/saline group ([4]; saline/colistin group, fifth day, colistin total 20.5 mg/kg over 5 days into jugular vein): ≥ 4 times
KIM-1 expression in proximal tubular cells ([7]; colistin 30 mg/kg/day subcutaneous over four days, fluorescent double staining with megalin): KIM-1 was also expressed in the proximal tubular cells in which megalin, which remained without being knocked out, was expressed
vacuoles in cytoplasm of proximal tubular cells expressing megalin versus megalin knocked out cells ([7]; colistin 30 mg/kg/day subcutaneous over four days, immunohistochemical staining): numerous vacuoles (arrows) were observed in the cytoplasm
dependence of proximal renal tubular cell damage on megalin expression ([7]; mosaic-type megalin knockout mice): largely depended on the expression of megalin
blocking circle / anti-microbial activity [5, 8]: a growth inhibition circle was formed
blocking circle diameter [5, 8]: 13.5 mm

gentamicin
binding to megalin (frequency decrease after injection) [6]: binding to megalin was confirmed

Reference: patent publication US10420741B2, “Megalin antagonist” (EA Pharma Co., Ltd., priority 2014, dated 2019)
